Five compounds from paper PMC4285233 (Molecular Microbiology, 2014) can be followed below.

Experiment [1] concerns the target T1, Gap1 (general amino acid permease) (Saccharomyces cerevisiae, UniProt P19145).
T1 sequence (P19145 1-602): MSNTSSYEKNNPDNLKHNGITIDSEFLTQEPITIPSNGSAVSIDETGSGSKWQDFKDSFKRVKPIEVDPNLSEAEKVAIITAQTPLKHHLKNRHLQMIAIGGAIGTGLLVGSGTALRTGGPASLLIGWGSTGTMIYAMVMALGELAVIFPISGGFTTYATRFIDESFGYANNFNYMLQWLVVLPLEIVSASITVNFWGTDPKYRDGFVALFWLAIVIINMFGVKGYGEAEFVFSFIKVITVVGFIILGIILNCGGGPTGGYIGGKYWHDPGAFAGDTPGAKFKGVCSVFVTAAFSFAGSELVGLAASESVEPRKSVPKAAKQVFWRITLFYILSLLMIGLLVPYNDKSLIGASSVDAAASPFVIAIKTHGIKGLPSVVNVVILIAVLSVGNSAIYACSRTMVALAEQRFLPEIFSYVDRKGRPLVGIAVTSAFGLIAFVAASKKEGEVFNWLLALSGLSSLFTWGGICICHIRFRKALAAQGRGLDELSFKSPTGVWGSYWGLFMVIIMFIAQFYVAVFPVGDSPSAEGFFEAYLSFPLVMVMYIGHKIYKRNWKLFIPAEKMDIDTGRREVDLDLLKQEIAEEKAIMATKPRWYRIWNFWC
As to the kind of experiment: inhibition of L-citrulline uptake in intact yeast. Type of experiment: cell-based.

Experiment [2] has as its target T1, Gap1 (general amino acid permease). As to the kind of experiment: inhibition of […]-L-citrulline uptake in intact yeast. Type of experiment: cell-based.

Consider `N[C@H](Cc1c[nH]cn1)C(=O)O` [D-histidine], for which the “inhibition of L-citrulline uptake in intact yeast (Fig. S6B, C)” value in experiment [1] was “Moreover they are acting largely as competitive inhibitors of L-citrulline transport (Fig. S6B and C)”.

On to `N[C@@H](Cc1c[nH]cn1)C(=O)O` [L-histidine], for which the inhibition constant (Ki) (in general, a dissociation constant, usually derived from enzyme kinetics or from competition with a known ligand) in experiment [2] amounted to 2.5 µM.

As for `NCCCC[C@H](N)C(=O)O` [L-lysine], the Ki in experiment [2] was 9.5 µM.

In experiment [2], `N[C@@H](Cc1c[nH]c2ccccc12)C(=O)O` [L-tryptophan] returned a Ki of 3.3 µM.

On to `NCCC(=O)O` [β-alanine], for which the “inhibition of L-citrulline uptake in intact yeast (Fig. S6B, C)” value in experiment [1] was “Moreover they are acting largely as competitive inhibitors of L-citrulline transport (Fig. S6B and C)”.
